# Assay results published in paper PMC7958344, “Development of Novel Inhibitors Targeting the D-Box of the DNA Binding Domain of Androgen Receptor” (International Journal of Molecular Sciences, 2021).
# Read-outs that look alike come from different tables or passages of the source.
# Assays:
# [1] = Metabolic stability in human microsomes; assay type: in vitro ADME
# Description: We then tested the metabolic stability of these molecules using human microsomes. […] This could explain the lower potency of this compound in cell growth assays, as it is metabolized quickly in the media.
# LNCaP cells = assay: Cell viability (PrestoBlue), LNCaP; assay type: cell-based; conditions: for growth inhibition of LNCaP cell line: result in words
# Protocol: (§1) VPC-17160 and VPC-17281 were further evaluated for their potential to inhibit the growth of prostate cancer cell lines LNCaP (AR-FL dependent) and 22rv1 (AR-V7 dependent).
# (§2) LNCaP cells incorporating an AR2PB-eGFP reporter construct (2 × probasin) are previously described. eGFP and secreted PSA assays were performed as described. The mammalian two-hybrid assay was performed in PC3 cells by co-transfection of 15 ng pA-AR or pB-AR plasmids, with 12.5 ng PG5-NLuc reporter. PC3_iV7_3TKNluc or PC3_iNluc cells were seeded in DMEM +5% CSS at 5000 cells/well for 24 h, followed by adding doxycycline/compounds (18 h) and luminescence measurement. LNCaP and 22rv1 cells were starved in RPMI + CSS (48 h) before cell viability tests using the same conditions as above, followed by 30 μL/well PrestoBlue™ Reagent (1 h) and fluorescence measurement (TECAN F200).
# 22rv1 cells = assay: Cell viability (PrestoBlue), 22rv1; assay type: cell-based; conditions: for growth inhibition of 22rv1 cell line: result in words
# Protocol: as §1, §2
# full-length AR = target: T1, full-length AR (Homo sapiens, UniProt P10275, T878A); assay: eGFP AR transcriptional assay in LNCaP cells; assay type: cell-based; conditions: for eGFP FL (12 μM) / IC50: LNCaP-eGFP; for eGFP FL (12 μM): Supplementary Table 1; for inhibition of AR-FL expression at 12 μM: result in words; for IC50: read-out: estimated IC50, AR-FL transcriptional activity (eGFP)
# T1 construct: endogenous in cells; host or cells: LNCaP with AR2PB-eGFP reporter
# T1 sequence (P10275 1-920 T878A): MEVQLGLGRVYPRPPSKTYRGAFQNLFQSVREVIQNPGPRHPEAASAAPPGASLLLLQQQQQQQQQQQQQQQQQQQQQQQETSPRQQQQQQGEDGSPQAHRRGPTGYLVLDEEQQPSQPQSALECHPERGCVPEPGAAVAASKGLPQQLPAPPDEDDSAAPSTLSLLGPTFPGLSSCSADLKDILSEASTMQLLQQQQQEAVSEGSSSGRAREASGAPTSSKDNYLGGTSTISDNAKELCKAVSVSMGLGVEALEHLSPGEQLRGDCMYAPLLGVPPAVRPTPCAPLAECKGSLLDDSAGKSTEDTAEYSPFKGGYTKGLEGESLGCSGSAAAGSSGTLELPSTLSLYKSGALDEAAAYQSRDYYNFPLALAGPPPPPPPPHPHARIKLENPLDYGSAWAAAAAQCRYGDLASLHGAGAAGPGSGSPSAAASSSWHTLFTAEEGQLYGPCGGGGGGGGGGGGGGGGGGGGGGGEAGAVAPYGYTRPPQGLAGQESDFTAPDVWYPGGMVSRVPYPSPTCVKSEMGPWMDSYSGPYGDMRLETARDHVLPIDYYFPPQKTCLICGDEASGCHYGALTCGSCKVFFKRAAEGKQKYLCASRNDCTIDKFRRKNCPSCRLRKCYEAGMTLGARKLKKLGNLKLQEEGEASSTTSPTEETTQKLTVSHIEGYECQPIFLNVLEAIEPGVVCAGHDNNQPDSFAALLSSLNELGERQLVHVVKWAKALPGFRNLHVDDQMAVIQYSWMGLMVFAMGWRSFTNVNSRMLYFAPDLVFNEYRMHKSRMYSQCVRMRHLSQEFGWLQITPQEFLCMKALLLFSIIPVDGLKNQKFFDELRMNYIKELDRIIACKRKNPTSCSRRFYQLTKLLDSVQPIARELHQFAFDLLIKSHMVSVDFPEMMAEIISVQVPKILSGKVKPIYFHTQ
# Protocol: In addition, these compounds were also tested for their ability to inhibit full-length AR transcriptional activity in LNCaP cells using an enhanced green fluorescent protein (eGFP) AR transcriptional assay, where the expression of eGFP is under the direct control of an androgen-responsive probasin-derived promoter.
# as §2
# [2] = system: prostate-specific antigen (PSA); assay: Secreted PSA production in LNCaP cells; assay type: cell-based; conditions: Homo sapiens, read-out: IC50, secreted PSA levels
# Protocol: To further validate compounds as AR inhibitors, we tested their activity by quantifying the effect on the production of endogenous prostate-specific antigen (PSA) in PCa cell lines. PSA is an AR-regulated serine protease and is widely used as a biomarker for PCa.
# as §2
# AR-LBD = target: T2, AR-LBD (Rattus norvegicus, UniProt P15207); assay: Androgen displacement assay (Polar Screen Androgen Receptor Competitor Green Assay Kit, FluormoneAL Green); assay type: binding; conditions: for % Displacement (1 μM) / % Displacement (10 μM): Table 1
# T2 construct: displace a fluorescent-tagged androgenic ligand (FluormoneAL Green) from the AR-LBD; purchased
# T2 sequence (P15207 651-882 limits assumed): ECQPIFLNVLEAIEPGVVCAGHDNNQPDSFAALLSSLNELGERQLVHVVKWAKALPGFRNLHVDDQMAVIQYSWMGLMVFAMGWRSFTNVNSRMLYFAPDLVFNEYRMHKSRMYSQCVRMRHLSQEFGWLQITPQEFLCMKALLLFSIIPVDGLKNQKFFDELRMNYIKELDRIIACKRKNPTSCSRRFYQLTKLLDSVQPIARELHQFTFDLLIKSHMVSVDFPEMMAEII
# Protocol: Androgen displacement was assessed with the Polar Screen Androgen Receptor Competitor Green Assay Kit as per the instructions of the manufacturer.
# [3] = microsomal stability, Table 1, read-out: Half-Life
# [4] = read-out: half-life in microsomes (T1/2)
SMILES,"half-life [1, 3]","half-life [1, 4]",growth inhibition of LNCaP cell line (LNCaP cells),growth inhibition of 22rv1 cell line (22rv1 cells),eGFP FL (12 μM) (full-length AR),inhibition of AR-FL expression at 12 μM (full-length AR),IC50 (full-length AR),IC50 [2],% Displacement (1 μM) (AR-LBD),% Displacement (10 μM) (AR-LBD),"IC50 (LNCaP cells; Homo sapiens, LNCaP (AR-FL dependent), read-out: IC50, cell growth)","IC50 (22rv1 cells; Homo sapiens, 22rv1 (AR-V7 dependent), read-out: IC50, cell growth)","hormone displacement at 50 μM (AR-LBD; high concentrations (50 μM), result in words)"
O=C(NCc1cccc2ccccc12)NCC(O)(c1cccs1)c1cccs1 [VPC-17160],3 min,3 min,inhibited the growth,inhibited the growth,76,significant inhibition,2 µM,2 µM,10%,29%,,,
CC(O)(CNC(=O)C=Cc1ccnc2ccccc12)c1ccsc1 (centres unmarked) [VPC-17281],90 min,> 90 min,inhibited the growth,inhibited the growth,100,significant inhibition,5 µM,6 µM,0%,0%,25 µM,10 µM,no significant hormone displacement
